# From PubChem BioAssay (NCI)
#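 Dose response: 5 concentrations. Exposure: 48 h. Format: 96-well plates. Endpoint: linear interpolation; highest concentration if not reached. TGI is the concentration that stops growth completely.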
# Tests used:
# Assay in all cases: NCI anticancer screen, dose series, 48 h
# SK-MEL-2 melanoma = tested on: SK-MEL-2 melanoma
# SNB-19 CNS = tested on: SNB-19 CNS
# HCT-116 colon = tested on: HCT-116 colon
# NCI-H460 lung = tested on: NCI-H460 lung
# 786-0 renal = tested on: 786-0 renal
# HCC-2998 colon = tested on: HCC-2998 colon
# OVCAR-8 ovarian = tested on: OVCAR-8 ovarian
# SNB-75 CNS = tested on: SNB-75 CNS
# SF-539 CNS = tested on: SF-539 CNS
# NCI-H522 lung = tested on: NCI-H522 lung
# LOX IMVI melanoma = tested on: LOX IMVI melanoma
# SF-295 CNS = tested on: SF-295 CNS
# SW-620 colon = tested on: SW-620 colon
# SN12C renal = tested on: SN12C renal
# DU-145 prostate = tested on: DU-145 prostate
# U251 CNS = tested on: U251 CNS
# MDA-MB-231 breast = tested on: MDA-MB-231 breast
# MALME-3M melanoma = tested on: MALME-3M melanoma
# SK-MEL-28 melanoma = tested on: SK-MEL-28 melanoma
SMILES,TGI (SK-MEL-2 melanoma) [µM],TGI (SNB-19 CNS) [µM],TGI (HCT-116 colon) [µM],TGI (NCI-H460 lung) [µM],TGI (786-0 renal) [µM],TGI (HCC-2998 colon) [µM],TGI (OVCAR-8 ovarian) [µM],TGI (SNB-75 CNS) [µM],TGI (SF-539 CNS) [µM],TGI (NCI-H522 lung) [µM],TGI (LOX IMVI melanoma) [µM],TGI (SF-295 CNS) [µM],TGI (SW-620 colon) [µM],TGI (SN12C renal) [µM],TGI (DU-145 prostate) [µM],TGI (U251 CNS) [µM],TGI (MDA-MB-231 breast) [µM],TGI (MALME-3M melanoma) [µM],TGI (SK-MEL-28 melanoma) [µM]
Cc1nc(N)c(N2CCNCC2)c(=O)[nH]1,> 100,> 100,> 100,> 100,> 100,> 100,> 100,> 100,> 100,> 100,> 100,> 100,> 100,> 100,> 100,> 100,> 100,> 100,> 100
CC(=O)OCC1OC(N2C(c3ccccc3)=CC(c3ccccc3)C(C#N)=C2S)C(OC(C)=O)C(OC(C)=O)C1OC(C)=O (configuration not stated),16.8,26.5,> 65.6,> 49.5,9.85,> 100,24.2,54.2,16.2,28.6,> 42.5,10.1,> 100,15.7,> 100,16.2,> 40.8,28.3,> 100
O=C(c1ccccc1)c1c2ccccn2c2cccc[n+]12,> 100,,> 100,> 100,> 100,> 100,> 100,> 100,> 100,,> 100,> 100,> 100,,> 100,> 100,> 100,> 100,> 100
Cc1c(Cc2ccccc2)n(COCCCO)c(=O)[nH]c1=O,> 100,> 100,> 100,> 100,> 100,> 100,> 100,> 100,> 100,> 100,> 100,> 100,> 100,> 100,> 100,> 100,> 100,> 100,> 100
CCN(CC)Cc1cc(Nc2ccnc3ccc4c(nnn4C)c23)ccc1O,31.8,21.3,18.2,14.2,20.8,10.7,41.9,19.9,18.4,86,29.9,25.9,,31.8,31.4,,44.6,42.1,17.8
N#Cc1nc(COCCOCc2ccccc2)oc1N,> 100,> 100,> 100,> 100,> 100,> 100,> 100,> 100,> 100,> 100,> 100,> 100,> 100,> 100,> 100,> 100,> 100,> 100,> 100
C=CCN1C(=O)/C(=C/c2ccccc2)NC1=S,> 100,> 100,> 100,> 100,> 100,> 100,> 100,> 100,> 100,> 100,> 100,> 100,> 100,> 100,> 100,> 100,> 100,> 100,> 100
CC(=O)NCc1nc(C#N)c(N)o1,> 100,> 100,> 100,> 100,> 100,> 100,> 100,> 100,> 100,> 100,> 100,> 100,> 100,> 100,> 100,> 100,> 100,> 100,> 100
CC1CN=C(Nc2ccc(S(N)(=O)=O)cc2)S1 (configuration not stated),> 100,> 100,> 100,> 100,> 100,> 100,> 100,> 100,> 100,,> 10,> 100,> 100,> 100,> 100,> 100,> 100,> 100,> 100
O=[N+]([O-])C(C(Cl)=C(Cl)Cl)=C(N1CCOCC1)N1CCOCC1,> 100,> 100,> 100,,> 100,> 100,> 100,> 100,> 100,> 100,> 100,> 100,,> 100,> 100,> 100,> 100,> 100,> 100
CC(=O)O[C@@H]1C=C(C)[C@H](CBr)O[C@@]2(C)CC[C@H](Br)C(C)(C)[C@H]12,> 100,> 100,> 100,> 100,> 100,> 100,> 100,> 100,> 100,90.2,> 100,> 100,> 100,> 100,> 100,> 100,> 100,,> 100
Nc1nc(Cl)cc(NCC2(CO)CC(OCc3ccccc3)C2)n1 (configuration not stated),> 100,> 100,> 100,> 100,> 100,> 100,> 100,85.2,> 100,> 100,> 100,> 100,> 100,> 100,> 100,> 100,> 100,> 100,> 100
NC(N)=N/N=C/c1c(Cl)nc2sccn12,,> 100,31.7,30.3,32.7,34,> 100,> 100,37.8,84,39.6,44.1,41.1,> 100,> 100,> 100,> 100,50.3,> 100
Brc1ccc2c(-c3nc(-c4c[nH]c5ccc(Br)cc45)cs3)c[nH]c2c1,20.7,13,14.3,8.36,6.33,5.92,25.3,31.4,18.1,4.85,5.22,17.8,24.4,16.9,19.1,16.1,18.4,19.4,28.7
CNC(=O)N1CCN(C(=O)NC)CCN(C(=O)NC)CC1,> 100,> 100,> 100,> 100,> 100,> 100,> 100,> 100,,> 100,> 100,> 100,> 100,> 100,> 100,> 100,> 100,> 100,> 100
O=C(CC(=O)N(C(=O)c1ccccc1)c1ccc(Cl)cc1)N/N=C\c1cc(N=Nc2ccccc2Cl)ccc1O,,94.2,> 100,> 100,> 100,> 100,> 100,36.6,> 100,,> 100,> 100,> 100,> 100,> 100,> 100,> 100,> 100,> 100
O=C(CCc1ccc(O)cc1)NCCc1ccc(O)cc1,> 100,> 100,> 100,> 100,> 100,> 100,> 100,,> 100,> 100,> 100,> 100,,> 100,> 100,> 100,> 100,> 100,> 100
Nc1nc(Cl)cc(NCC2(CO)COC2)n1,> 100,,> 100,> 100,> 100,> 100,> 100,> 100,> 100,> 100,> 100,> 100,> 100,> 100,> 100,> 100,> 100,> 100,> 100
N#CC1=C(N2CCCC2)NC(=O)CC1=O,> 100,> 100,> 100,> 100,> 100,> 100,> 100,,> 100,> 100,> 100,> 100,> 100,> 100,> 100,> 100,> 100,> 100,> 100
NS(=O)(=O)c1nnc(NC(=O)c2ccccc2)s1,> 100,> 100,> 100,> 100,> 100,> 100,> 100,,> 100,> 100,> 100,> 100,> 100,> 100,> 100,> 100,> 100,> 100,> 100
O=C(Nc1ccc2nc(-c3ccccc3)cn2c1)Oc1ccccc1,> 100,> 100,> 100,> 100,> 100,> 100,> 100,13.1,,90.2,> 100,> 100,> 100,> 100,> 100,> 100,> 100,> 100,> 100
CCOC(=O)c1c(SC(=O)/C=C/c2ccccc2)n(-c2ccccc2)c(=S)n(-c2ccccc2)c1=O,,> 100,> 100,> 100,> 100,> 100,> 100,> 100,> 100,> 100,> 100,> 100,> 100,> 100,> 100,> 100,> 100,> 100,> 100
S=C(/N=c1/sc(Nc2ccccc2)nc2sc3c(c12)CCCC3)Nc1ccccc1,> 62.5,> 62.5,> 62.5,> 62.5,> 62.5,> 62.5,,,,> 62.5,> 62.5,,> 62.5,> 62.5,> 62.5,> 62.5,> 62.5,> 62.5,> 62.5
Nc1ccc(C(=O)Nn2c(-c3ccccc3)nc3ccccc3c2=O)cc1,,> 100,> 100,> 100,> 100,> 100,> 100,> 100,> 100,> 100,> 100,> 100,> 100,> 100,> 100,> 100,> 100,> 100,> 100
COc1ccc(-c2c(C(C)=O)c(-c3ccccc3)n(C3OC(COC(C)=O)C(OC(C)=O)C(OC(C)=O)C3OC(C)=O)c(=S)c2C#N)cc1 (configuration not stated),,> 100,> 100,> 100,> 100,> 100,> 100,> 100,> 100,> 100,> 100,> 100,> 100,> 100,> 100,> 100,> 100,> 100,> 100
COC12C=CC(CC1)C(C)(C)C2=O (configuration not stated),> 100,> 100,> 100,> 100,> 100,> 100,> 100,> 100,> 100,> 100,,> 100,> 100,> 100,> 100,> 100,> 100,> 100,> 100
